The source of these data is publication PMC3617838 (Journal of Experimental Botany, 2013).

In one data set the target is T1, LTP3 (LTP3-GST) (Arabidopsis thaliana, UniProt Q9LLR7).
T1 sequence (Q9LLR7 24-115): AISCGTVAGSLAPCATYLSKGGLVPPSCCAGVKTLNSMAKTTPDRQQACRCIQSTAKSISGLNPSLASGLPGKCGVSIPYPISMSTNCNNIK
The experiment in a line: fluorescence titration. It is filed as binding.

Data set [1] has as its target T2, MYB96-His (Arabidopsis thaliana) (UniProt Q24JK1).
T2 sequence: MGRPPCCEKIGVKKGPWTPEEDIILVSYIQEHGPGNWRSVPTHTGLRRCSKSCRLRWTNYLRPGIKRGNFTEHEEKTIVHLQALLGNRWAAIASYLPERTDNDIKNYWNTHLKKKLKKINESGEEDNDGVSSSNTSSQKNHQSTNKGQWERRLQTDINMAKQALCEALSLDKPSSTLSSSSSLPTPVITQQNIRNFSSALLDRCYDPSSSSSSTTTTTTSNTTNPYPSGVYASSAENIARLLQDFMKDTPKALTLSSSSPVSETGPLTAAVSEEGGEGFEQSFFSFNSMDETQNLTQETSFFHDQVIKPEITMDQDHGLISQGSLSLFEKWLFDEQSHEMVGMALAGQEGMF
Nature of the data set: EMSA. Particulars: EMSA as in Shi et al. 2012; buffer, salt, pH and temperature not stated. Background: A gel shift assay detects complexes by their altered migration in electrophoresis.

For orientation: Kd means the free concentration of one partner at which half of the binding sites on the other are occupied at equilibrium, for simple one-to-one binding. The low end stands for higher affinity, the high end for lower affinity. `Cc1ccc(Nc2ccc3cc(S(=O)(=O)O)ccc3c2)cc1` [TNS, 2-p-toluidinonaphthalene-6-sulphonate]: the dissociation constant (Kd) on LTP3 (LTP3-GST) is 9.8 ± 4.7 µM.

With “CCACAGTTAATTAAAAGCAGATGAAAGGTGGTCCAATGGAAAAGGAGAATGTGATTGGGCTAGTTGGGAGAGTTCTGATGTCTAGTGTTGGGTACACGTGTCCGTCAGTTACACA (double strand) [LTP3 promoter XY]”, the binding entry in data set [1] was “binds”.
